Data published in patent publication US20190254299A1, “METHODS OF HANDLING AVOCADOS AND SYSTEM” (AGROFRESH INC., priority 2012, published 2019).

Legend:
Type in all cases: in vivo
avocados [1] = assay: Skin color rating, ethylene-treated fruit, Example 6; parameters: key to Skin Color ratings: 1 = full green to 5 = purple-black; settings: for Skin Color ratings: ethylene-treated, 900 ppb MCP
Description: (§1) Avocado skin color was rated using the following scale: • 1=full green • 2=green with traces of brown • 3=half green and half brown • 4=brown with traces of green • 5=purple-black
(§2) Avocados were harvested, handled, and tested as in Example 1. Fruits were placed into MAP bags or else into “Poly bags” (plastic bags having more than 10 holes per bag, with each hole larger than 1 cm in diameter).
(§3) Three fruits (approximately 1.8 kg of fruit) were placed in each bag. After placement into bags, fruit was exposed to ethylene (200 ppm for 24 hours at 22° C.). Then, the fruit was exposed to 1-MCP (900 ppb for 15 hours at 22° C.).

avocados [2] = assay: Skin color rating of avocados, Example 1 (California); parameters: key: 1 = full green, 3 = half green/half brown, 5 = purple-black
Description: as §1
(§4) Avocados were harvested in Oxnard, Calif., USA and packed in cardboard boxes and shipped to Sacramento, Calif, USA. After 2 days of transportation part of the avocados were packed in MAP bags. The appropriate weight of avocados was placed in each bag after harvest and shipment. Bags were placed in RPC (Recycle Plastic Container) carrying devices. Avocados then were stored at room temperature (22° C.).
(§5) The Test Protocol that was used was as follows. 60 MAP bags were packed. Each hag held approximately 1.7 kg (3.8 lb) of avocados. Three such bags were packed in each RPC. Total weight of avocados in MAP bags was approximately 102 kg. Approximately 51 kg of avocados were placed into RPC identical to those used for the MAP bags. The MAP-packaged avocados were packaged as follows: Nine fruits, approximately 1.7 kg (3.8 lb) were carefully placed into MAP bags, and the bags were sealed by twisting the open side of the bag, folding down the twisted end, and placing a rubber band around the twisted and folded end of the bag.
(§6) Avocados were harvested with a very high firmness (not possible to measure with FTA Machines (Firmness Texture Analyzer)). The FTA higher limit was 156 N (351 bf). To monitor the ripening process of the avocados, extra fruits were bagged in MAP bags and the firmness was monitored every day, twice a day until the fruits achieve an average firmness of 111 N (25 lbf). All avocados were kept at room temperature (22° C.) until achieving an average firmness of 111 N (251 bf).
(§7) After achieving an average firmness of 111 N (25 lbf) the avocados were randomly divided into treatment sets as follows:
(§8) On the same day the avocados achieved 111 N (25 lbf) of average firmness, each treatment set was marked, placed in a hermetical chamber at room temperature (22° C.). All chambers were of equal size and packed the same way. Treatment was for 12 hr. In the chambers for the 3 “MCP” treatment groups, at the beginning of the treatment period, SmartFresh™ SmartTabs™ tablets (AgroFresh, Inc.) were placed in the chamber. The amount of SmartFresh™ SmartTabs™ tablets was chosen to achieve the indicated concentration of 1-methylcyclopropene in the atmosphere of the chamber. The SmartTabs™ tablets were contacted with water in the normal way to release 1-MCP.
(§9) After the treatment in the chambers, the RPCs were moved into racks at room temperature for storage and observation. Avocados remained in the same bags throughout the packing, treatment in the chamber, and subsequent storage. Evaluation for skin color and pulp firmness was as follows. Day “zero” was the day the avocados were removed from the chamber and placed in storage. Each test result was the average of 12 fruits.

avocados [3] = assay: RipeLock applications, Example 7; settings: FIG. 5, firmness
Description: Avocados are harvested, handled, and tested as in previous examples. Control samples have no bag and no SmartFresh (1-methylcyclopropene or 1-MCP) application. SmartFresh samples have no bags hut with 600 ppb SmartFresh (1-methylcyclopropene or 1-MCP) application. MAP samples use the 31b MAP bags but no SmartFresh (1-methylcyclopropene or 1-MCP) application. RipeLock 300 samples have the 31b MAP bags with 300 ppb SmartFresh (1-methylcyclopropene or 1-MCP) application. RipeLock 600 samples have the 31b MAP bags with 600 ppb SmartFresh (1-methylcyclopropene or 1-MCP) application. RipeLock 900 samples have the 31b MAP bags with 900 ppb SmartFresh (1-methylcyclopropene or 1-MCP) application. Average fruit in each sample is about 3.81b.
Oxygen (O2) concentrations of samples tested are shown in FIG. 1, and carbon dioxide (CO2) concentrations of samples tested are shown in FIG. 2.

avocados [4] = assay: Pulp firmness by penetrometer, Example 1 (California)
Description: (§10) As used herein, the “pulp firmness” of an avocado is measured using a penetrometer (Fruit Test™ FT40 penetrometer, from Wagner Instruments) having a plunger diameter of 8 mm Performing the test for pulp firmness destroys the avocado that is tested. When avocados are said herein to be treated in a certain way (e.g., harvested, shipped, exposed to a cyclopropene compound, etc.) when they have a certain specified pulp firmness, it is meant that, out of a group of avocados that have been harvested and treated as uniformly as reasonably possible, a sample of a relatively small number of avocados is removed and tested for pulp firmness. The large group of avocados is considered to have the pulp firmness that is the average value of the tests performed on the relatively small sample.
(§11) Pulp firmness was evaluated by peeling open 4 cm^2 of the avocado's peel using a fruit peeler provided with the penetrometer. The penetrometer was mounted on a manual stand with a lever to deliver unifoim force throughout the test. The avocado was placed with the peeled surface beneath the penetrometer tip with probe diameter of 8 mm, and the force required to punch through the pulp was measured. Each fruit was tested in 3 places.
as §4, §5, §6, §7, §8, §9

avocados [5] = assay: Additional RipeLock applications, Example 8; settings: seven days at 22° C.
Description: Avocados are harvested, handled, and tested as in previous examples. Control samples have no bag and no SmartFresh (1-methylcyclopropene or 1-MCP) application. SmartFresh samples have no bags but with 500 ppb SmartFresh (1-methylcyclopropene or 1-MCP) application. MAP samples use the 31b MAP bags but no SmartFresh (1-methylcyclopropene or 1-MCP) application. RipeLock samples have the 3 lb MAP bags with various concentrations of SmartFresh (1-methylcyclopropene or 1-MCP) applications, including 10 ppb, 50 ppb, 100 ppb, 500 ppb, 1500 ppb, 3000 ppb, and 4500 ppb. Average fruit in each sample is about 3.8 lb. Ethylene is treated after packing at 200 ppm for twenty-four hours. Evaluations are performed seven days at 22° C. after SmartFresh (1-methylcyclopropene or 1-MCP) applications.
Data of pulp firmness of avocado tested are shown in FIG. 6 (with ethylene) and FIG. 7 (without ethylene).

avocados [6] = assay: Skin color on day 8, Example 3; parameters: key: 1: full green; 2: green with traces of brown; 3: half green and half brown; 4: brown with traces of green; 5: purple-black; settings: 1000 ppb MCP
Description: as §1
Avocados were harvested in Mexico and shipped to Pennsylvania, USA. 48 fruits were tested. When the fruits reached pulp firmness of 71 N (16 lbf), half of the fruits were exposed to atmosphere having 1000 ppb of MCP at 21.1° C. for 12 hours and half were not. Immediately after treatment, fruits were placed in MAP bags. The number of fruits per bag was either 1, 2, 3, 4, or 10. Two MCP-treated fruits were left out of any MAP, and two fruits not exposed to MCP were also left out of any MAP. All fruits were then stored at 21° C. (70° F.). On the eighth day after exposure to atmosphere containing MCP, fruits were tested with the following results. The results shown are the averages for all the fruits tested in each category.
Avocados were harvested and shipped as in Example 2. Treatment was performed when pulp thinness reached 98 N (22 lbf). 50 fruits were tested. Otherwise the treatment and handling was the same as in Example 2. Results (average of all fruits tested in each category) were as follows: […]

avocados [7] = assay: Pulp firmness, ethylene-treated fruit, Example 6; settings: for Pulp Firmness Difference from the Control Sample: ethylene-treated, 900 ppb MCP, control Poly bag, 0 MCP
Description: as §10, §11, §2, §3

## CC1=CC1 [MCP, 1-methylcyclopropene]
Avocados [1]; MAP bags and 900 ppb of 1-MCP, days 1, 2, and 3
  skin color compared with other treatments: best skin color
Avocados [1]; MAP bag, day 0
  Skin Color ratings: 2.1
Avocados [1]; MAP bag, day 1
  Skin Color ratings: 3.0
Avocados [1]; MAP bag, day 2
  Skin Color ratings: 3.3
Avocados [1]; MAP bag, day 3
  Skin Color ratings: 3.4
Avocados [1]; MAP bag, day 4
  Skin Color ratings: 4.4
Avocados [1]; Poly bag, day 0
  Skin Color ratings: 4.1
Avocados [1]; Poly bag, day 1
  Skin Color ratings: 4.9
Avocados [1]; Poly bag, day 2
  Skin Color ratings: 4.8
Avocados [1]; Poly bag, day 3
  Skin Color ratings: 4.8
Avocados [1]; Poly bag, day 4
  Skin Color ratings: 4.9
Avocados [2]; MAP bag, 300 ppb MCP, day 0
  Skin Color ratings: 1.7
Avocados [2]; MAP bag, 300 ppb MCP, day 1
  Skin Color ratings: 2.9
Avocados [2]; MAP bag, 300 ppb MCP, day 2
  Skin Color ratings: 2.3
Avocados [2]; MAP bag, 300 ppb MCP, day 3
  Skin Color ratings: 2.8
Avocados [2]; MAP bag, 300 ppb MCP, day 4
  Skin Color ratings: 2.3
Avocados [2]; MAP bag, 600 ppb MCP, day 0
  Skin Color ratings: 1.7
Avocados [2]; MAP bag, 600 ppb MCP, day 1
  Skin Color ratings: 2.3
Avocados [2]; MAP bag, 600 ppb MCP, day 2
  Skin Color ratings: 2.3
Avocados [2]; MAP bag, 600 ppb MCP, day 3
  Skin Color ratings: 2.2
Avocados [2]; MAP bag, 600 ppb MCP, day 4
  Skin Color ratings: 2.1
Avocados [2]; MAP bag, 900 ppb MCP, day 0
  Skin Color ratings: 1.6
Avocados [2]; MAP bag, 900 ppb MCP, day 1
  Skin Color ratings: 2.3
Avocados [2]; MAP bag, 900 ppb MCP, day 2
  Skin Color ratings: 2.3
Avocados [2]; MAP bag, 900 ppb MCP, day 3
  Skin Color ratings: 2.3
Avocados [2]; MAP bag, 900 ppb MCP, day 4
  Skin Color ratings: 2.4
Avocados [2]; No Bag, 600 ppb MCP, day 0
  Skin Color ratings: 2.6
Avocados [2]; No Bag, 600 ppb MCP, day 1
  Skin Color ratings: 3.0
Avocados [2]; No Bag, 600 ppb MCP, day 2
  Skin Color ratings: 2.8
Avocados [2]; No Bag, 600 ppb MCP, day 3
  Skin Color ratings: 3.8
Avocados [2]; No Bag, 600 ppb MCP, day 4
  Skin Color ratings: 3.4
Avocados [3]
  combined effect of MAP bags and SmartFresh application: synergistic effect
Avocados [4]; MAP bag, 300 ppb MCP, day 0
  Pulp Firmness - Difference from Untreated Control: 90 Ns
Avocados [4]; MAP bag, 300 ppb MCP, day 1
  Pulp Firmness - Difference from Untreated Control: 22 Ns
Avocados [4]; MAP bag, 300 ppb MCP, day 2
  Pulp Firmness - Difference from Untreated Control: 36 Ns
Avocados [4]; MAP bag, 300 ppb MCP, day 3
  Pulp Firmness - Difference from Untreated Control: 41.3 Ns
Avocados [4]; MAP bag, 300 ppb MCP, day 4
  Pulp Firmness - Difference from Untreated Control: 33 Ns
Avocados [4]; MAP bag, 600 ppb MCP, day 0
  Pulp Firmness - Difference from Untreated Control: 84 Ns
Avocados [4]; MAP bag, 600 ppb MCP, day 1
  Pulp Firmness - Difference from Untreated Control: 46 Ns
Avocados [4]; MAP bag, 600 ppb MCP, day 2
  Pulp Firmness - Difference from Untreated Control: 39 Ns
Avocados [4]; MAP bag, 600 ppb MCP, day 3
  Pulp Firmness - Difference from Untreated Control: 59.3 Ns
Avocados [4]; MAP bag, 600 ppb MCP, day 4
  Pulp Firmness - Difference from Untreated Control: 40 Ns
Avocados [4]; MAP bag, 900 ppb MCP, day 0
  Pulp Firmness - Difference from Untreated Control: 93 Ns
Avocados [4]; MAP bag, 900 ppb MCP, day 1
  Pulp Firmness - Difference from Untreated Control: 61 Ns
Avocados [4]; MAP bag, 900 ppb MCP, day 2
  Pulp Firmness - Difference from Untreated Control: 52 Ns
Avocados [4]; MAP bag, 900 ppb MCP, day 3
  Pulp Firmness - Difference from Untreated Control: 49.3 Ns
Avocados [4]; MAP bag, 900 ppb MCP, day 4
  Pulp Firmness - Difference from Untreated Control: 46 Ns
Avocados [4]; MCP alone at 600 ppb, day 3
  improvement over the untreated control (pulp firmness): 4 lbf
Avocados [4]; No Bag, 600 ppb MCP, day 0
  Pulp Firmness - Difference from Untreated Control: 29 Ns
Avocados [4]; No Bag, 600 ppb MCP, day 1
  Pulp Firmness - Difference from Untreated Control: 14 Ns
Avocados [4]; No Bag, 600 ppb MCP, day 2
  Pulp Firmness - Difference from Untreated Control: 10 Ns
Avocados [4]; No Bag, 600 ppb MCP, day 3
  Pulp Firmness - Difference from Untreated Control: 17.3 Ns
Avocados [4]; No Bag, 600 ppb MCP, day 4
  Pulp Firmness - Difference from Untreated Control: 12 Ns
Avocados [5]; rate of 1500 ppb in MAP bags
  firmness and skin color by application rate: best result for both firmness and skin color
Avocados [5]; rates equal or higher than 500 ppb
  combined effect of MAP bags and SmartFresh applications: synergistic effect
Avocados [6]; MAP bag
  Skin Color on Day 8, Color Rating: 4.2
Avocados [6]; no bag
  Skin Color on Day 8, Color Rating: 5
Avocados [7]; MAP bags and 900 ppb 1-MCP, days 1-4
  effect of combining MAP bag and 1-MCP on pulp firmness: synergistic benefit to pulp firmness
Avocados [7]; MAP bags and 900 ppb of 1-MCP, days 1-4
  pulp firmness compared with other treatments: best pulp firmness
Avocados [7]; MAP bag, day 0
  Pulp Firmness Difference from the Control Sample: 13.8 Ns
Avocados [7]; MAP bag, day 1
  Pulp Firmness Difference from the Control Sample: 30.4 Ns
Avocados [7]; MAP bag, day 2
  Pulp Firmness Difference from the Control Sample: 14.6 Ns
Avocados [7]; MAP bag, day 3
  Pulp Firmness Difference from the Control Sample: 21.4 Ns
Avocados [7]; MAP bag, day 4
  Pulp Firmness Difference from the Control Sample: 14.8 Ns
Avocados [7]; Poly bag, day 0
  Pulp Firmness Difference from the Control Sample: 0.1 Ns
Avocados [7]; Poly bag, day 1
  Pulp Firmness Difference from the Control Sample: 1.1 Ns
Avocados [7]; Poly bag, day 2
  Pulp Firmness Difference from the Control Sample: 0.6 Ns
Avocados [7]; Poly bag, day 3
  Pulp Firmness Difference from the Control Sample: 1.4 Ns
Avocados [7]; Poly bag, day 4
  Pulp Firmness Difference from the Control Sample: 0.1 Ns
